Source: article PMC9508196 (Scientific Reports, 2022)
≈ marks a conversion by molar mass, not a printed value. No end group written: not given here.

Assays:
[1] = tested on: Escherichia coli O157:H7 MT strain; format: cell-based; settings: E. coli O157:H7 MT strain; broth microdilution, MHB, 24 h, 37 °C, triplicate
Description: (§1) Ten strains of both Gram-positive and -negative bacteria, including Staphylococcus aureus ATCC 25,923, S. epidermidis ATCC 12,228, Bacillus cereus ATCC 11,778, Listeria monocytogenes 10403S, Salmonella typhimurium ATCC 13,311, Pseudomonas aeruginosa ATCC 27,853, Shigella sonnei ATCC 11,060, A. baumannii ATCC 19,606, Escherichia coli ATCC 25,922 and E. coli O157:H7, were used in this study. Eight clinical isolates of multidrug-resistant (MDR) and extensively drug-resistant (XDR) A. baumannii, isolated from human (blood, sputum, respiratory sample, sterile site sample and urine), were kindly provided by Asst. Prof. Dr. Sakawrat Kanthawong (Faculty of Medicine, Khon Kaen University, Thailand) (Table S1). All bacterial strains, excluding L. monocytogenes 10403S and E. coli, were cultured in tryptic soy broth (TSB). L. monocytogenes was grown in TSB supplemented with 0.6% yeast extract (TSB-YE), and E. coli was cultured in Luria broth (LB). All of bacteria were cultured at 37 °C with continuous shaking at 220 rpm.
(§2) Minimum inhibitory concentration (MIC) of peptides and antibiotics was assessed by a modified version of the broth microdilution method from the Clinical and Laboratory Standards Institute (CLSI) as previously described. In brief, mid-log phase growths of microbial strains were cultured in Müeller-Hinton broth (MHB) with an initial inoculum of 2–8 × 10^5 CFU/mL. Bacteria suspensions were incubated in sterile 96-well plates with test agents at desired concentrations. […] Minimum bactericidal concentration (MBC) determination was performed using a modified version of the colony count assay. In brief, fifty µl of all non-turbid wells from MIC experiments were spread on agar plates. The MBC value was defined as the lowest concentration of peptides with no colony growth on the plate. All assays were performed in triplicate.

[2] = tested on: Staphylococcus epidermidis ATCC 12,228; format: cell-based; settings: S. epidermidis ATCC 12,228; broth microdilution, MHB, 24 h, 37 °C, triplicate
Description: as §1, §2

[3] = tested on: Pseudomonas aeruginosa ATCC 27,853; format: cell-based; settings: P. aeruginosa ATCC 27,853; broth microdilution, MHB, 24 h, 37 °C, triplicate
Description: as §1, §2

[4] = tested on: Staphylococcus aureus ATCC 25,923; format: cell-based; settings: S. aureus ATCC 25,923; broth microdilution, MHB, 24 h, 37 °C, triplicate
Description: as §1, §2

[5] = tested on: Bacillus cereus ATCC 11,778; format: cell-based; settings: B. cereus ATCC 11,778; broth microdilution, MHB, 24 h, 37 °C, triplicate
Description: as §1, §2

[6] = tested on: Escherichia coli ATCC 25,922; format: cell-based; settings: E. coli ATCC 25,922; broth microdilution, MHB, 24 h, 37 °C, triplicate
Description: as §1, §2

[7] = tested on: Listeria monocytogenes 10403S; format: cell-based; settings: L. monocytogenes 10403S; broth microdilution, MHB, 24 h, 37 °C, triplicate
Description: as §1, §2

[8] = tested on: Salmonella Typhimurium ATCC 13,311; format: cell-based; settings: S. Typhimurium ATCC 13,311; broth microdilution, MHB, 24 h, 37 °C, triplicate
Description: as §1, §2

[9] = tested on: Shigella sonnei ATCC 11,060; format: cell-based; settings: S. sonnei ATCC 11,060; broth microdilution, MHB, 24 h, 37 °C, triplicate
Description: as §1, §2

[10] = tested on: A. baumannii ATCC 19,606; experiment: microbe, parasite or virus in culture; format: cell-based, Acinetobacter baumannii; settings: for MBC: ATCC19
Description: as §1, §2

[11] = tested on: A. baumannii isolate B-8.1-1; experiment: Disk diffusion test (CLSI), antibiotic susceptibility profile; format: cell-based, Acinetobacter baumannii; settings: CLSI breakpoints
Description: (§3) ^aAntibiotic susceptibility profile of all isolated strains was evaluated by disk diffusion test, using the standard protocol guide of the Clinical and Laboratory Standards Institute (CLSI), and interpreted as S: Susceptible to standard dosing regimen; I: Intermediate; R: Resistant (in accordance with the criteria of CLST breakpoints).

[12] = tested on: A. baumannii isolate D-10.1-2; experiment: as above; format: cell-based, Acinetobacter baumannii; settings: CLSI breakpoints
Description: as §3

[13] = tested on: A. baumannii isolate C-8.2-1; experiment: as above; format: cell-based, Acinetobacter baumannii; settings: CLSI breakpoints
Description: as §3

[14] = tested on: A. baumannii isolate A-8.2-1; experiment: as above; format: cell-based, Acinetobacter baumannii; settings: CLSI breakpoints
Description: as §3

[15] = tested on: A. baumannii isolate B-8.1-2; experiment: as above; format: cell-based, Acinetobacter baumannii; settings: CLSI breakpoints
Description: as §3

[16] = tested on: A. baumannii isolate C-8.1-2; experiment: as above; format: cell-based, Acinetobacter baumannii; settings: CLSI breakpoints
Description: as §3

[17] = tested on: A. baumannii isolate D-10.1-1; experiment: as above; format: cell-based, Acinetobacter baumannii; settings: CLSI breakpoints
Description: as §3

[18] = tested on: A. baumannii isolate B-8.2-2; experiment: as above; format: cell-based, Acinetobacter baumannii; settings: CLSI breakpoints
Description: as §3

[19] = tested on: A. baumannii B-8.1–1 (MDR); experiment: microbe, parasite or virus in culture; format: cell-based, Acinetobacter baumannii; settings: Acinetobacter baumannii
Description: as §1, §2

[20] = tested on: A. baumannii A-8.2–1 (XDR); experiment: microbe, parasite or virus in culture; format: cell-based, Acinetobacter baumannii; settings: Acinetobacter baumannii
Description: as §1, §2

[21] = tested on: A. baumannii B-8.1–2 (MDR); experiment: microbe, parasite or virus in culture; format: cell-based, Acinetobacter baumannii; settings: Acinetobacter baumannii
Description: as §1, §2

[22] = tested on: A. baumannii C-8.2–1 (XDR); experiment: microbe, parasite or virus in culture; format: cell-based, Acinetobacter baumannii; settings: Acinetobacter baumannii
Description: as §1, §2

[23] = tested on: A. baumannii B-8.2–2 (XDR); experiment: microbe, parasite or virus in culture; format: cell-based, Acinetobacter baumannii; settings: Acinetobacter baumannii
Description: as §1, §2

[24] = tested on: A. baumannii C-8.1–2 (MDR); experiment: microbe, parasite or virus in culture; format: cell-based, Acinetobacter baumannii; settings: Acinetobacter baumannii
Description: as §1, §2

[25] = A. baumannii ATCC 19,606, broth microdilution (modified CLSI), MHB, 2–8 × 10^5 CFU/mL, 24 h, 37 °C, triplicate
[26] = Acinetobacter baumannii, ATCC19, 24 h

| Compound | MIC [1] [µg/mL] | MIC [2] [µg/mL] | MIC [3] [µg/mL] | MIC [4] [µg/mL] | MIC [5] [µg/mL] | MIC [6] [µg/mL] | MIC [7] [µg/mL] | MIC [8] [µg/mL] | MIC [9] [µg/mL] | MIC [10, 25] [µg/mL] | Antibiotic susceptibility profile [11] | Antibiotic susceptibility profile [12] | Antibiotic susceptibility profile [13] | Antibiotic susceptibility profile [14] | Antibiotic susceptibility profile [15] | Antibiotic susceptibility profile [16] | Antibiotic susceptibility profile [17] | Antibiotic susceptibility profile [18] | further results |
| --- | --- | --- | --- | --- | --- | --- | --- | --- | --- | --- | --- | --- | --- | --- | --- | --- | --- | --- | --- |
| RLFRRVKKVAGKIA-NH2 [AP14] | 250 | 31.25 | 250 | > 250 | > 250 | 125 | 62.5 | 62.5 | 125 | > 250 | – | – | – | – | – | – | – | – | – |
| CNC(C)C1CCC(N)C(OC2C(N)CC(N)C(OC3OCC(C)(O)C(NC)C3O)C2O)O1 (stereo not shown) [Gen, Gentamicin] | – | – | – | – | – | – | – | – | – | – | I | I | R | R | R | R | R | R | – |
| RLFRRVKKVAGKIAK-NH2 [AP15] | 62.5 | 15.63 | 125 | 250 | > 250 | 31.25 | 31.25 | 31.25 | 62.5 | 62.5 | – | – | – | – | – | – | – | – | – |
| CC(C)(O/N=C(\C(=O)N[C@@H]1C(=O)N2C(C(=O)[O-])=C(C[n+]3ccccc3)CS[C@H]12)c1csc(N)n1)C(=O)O [Caz, Ceftazidime] | – | – | – | – | – | – | – | – | – | – | S | I | R | R | R | I | R | R | – |
| RLFRRVKKVAGKIAKR-NH2 [AP16] | 125 | 7.81 | 62.5 | 125 | 250 | 31.25 | 15.63 | 15.63 | 15.63 | 62.5 | – | – | – | – | – | – | – | – | – |
| RLFRRVKKVAGKIAKRIW-NH2 [AP18] | 15.63 | 3.91 | 3.91 | 7.81 | 7.81 | 7.81 | 3.91 | 3.91 | 3.91 | 7.81 | – | – | – | – | – | – | – | – | – |
| RLFRRVKKVAGKIAKRI-NH2 [AP17] | 125 | 7.81 | 15.63 | 62.5 | 62.5 | 15.63 | 7.81 | 7.81 | 7.81 | 31.25 | – | – | – | – | – | – | – | – | – |
| C[C@H]1COc2c(N3CCN(C)CC3)c(F)cc3c(=O)c(C(=O)O)cn1c23 [Levofloxacin] | – | – | – | – | – | – | – | – | – | – | S | R | R | R | R | R | I | R | MBC [19]: 1.95 µg/mL (≈ 5.4 µM); MIC [19]: ≤ 0.49 µg/mL; MBC [20]: 3.91 µg/mL (≈ 10.8 µM); MIC [20]: 3.91 µg/mL (≈ 10.8 µM); MBC ([10]; Acinetobacter baumannii): ≤ 0.49 µg/mL; MIC [10, 26]: ≤ 0.49 µg/mL; MBC [21]: 250 µg/mL (≈ 692 µM); MIC [21]: 125 µg/mL (≈ 346 µM); MBC [22]: 7.81 µg/mL (≈ 21.6 µM); MIC [22]: 3.91 µg/mL (≈ 10.8 µM); MBC [23]: 7.81 µg/mL (≈ 21.6 µM); MIC [23]: 7.81 µg/mL (≈ 21.6 µM); MBC [24]: 31.2 µg/mL (≈ 86.5 µM); MIC [24]: 31.2 µg/mL (≈ 86.5 µM) |
| RLFRRVKKVAGK-NH2 [AP12] | 250 | 250 | > 250 | > 250 | > 250 | 125 | 125 | 125 | 250 | > 250 | – | – | – | – | – | – | – | – | – |
| CN(C)c1ccc(O)c2c1C[C@H]1C[C@H]3[C@H](N(C)C)C(O)=C(C(N)=O)C(=O)[C@@]3(O)C(O)=C1C2=O [Minocycline] | – | – | – | – | – | – | – | – | – | – | – | – | – | – | – | – | – | – | MBC [19]: 7.81 µg/mL (≈ 17.1 µM); MIC [19]: ≤ 0.49 µg/mL; MBC [20]: 31.2 µg/mL (≈ 68.3 µM); MIC [20]: 0.98 µg/mL (≈ 2.14 µM); MBC ([10]; Acinetobacter baumannii): 1.95 µg/mL (≈ 4.26 µM); MIC [10, 26]: ≤ 0.49 µg/mL; MBC [21]: 15.6 µg/mL (≈ 34.2 µM); MIC [21]: 0.98 µg/mL (≈ 2.14 µM); MBC [22]: 31.2 µg/mL (≈ 68.3 µM); MIC [22]: 1.95 µg/mL (≈ 4.26 µM); MBC [23]: 31.2 µg/mL (≈ 68.3 µM); MIC [23]: 3.91 µg/mL (≈ 8.55 µM); MBC [24]: 31.2 µg/mL (≈ 68.3 µM); MIC [24]: 3.91 µg/mL (≈ 8.55 µM) |
| RLFRRVKKVAGKI-NH2 [AP13] | 250 | 62.5 | > 250 | > 250 | > 250 | 125 | 62.5 | 62.5 | 125 | > 250 | – | – | – | – | – | – | – | – | – |
| CC1(C)S[C@@H]2[C@H](NC(=O)[C@H](N)c3ccccc3)C(=O)N2[C@H]1C(=O)O [Amp, Ampicillin] | – | – | – | – | – | – | – | – | – | – | R | R | R | R | R | R | R | R | – |
